The data set relates to hiPSC-derived NSCs undergoing differentiation towards neurons and astrocytes. The data set can be described thus: In vitro biokinetics of CPF and metabolites in medium, cells and plastic (HPLC-UV). As for the experimental part:
The nominal concentration causing 5 % decrease of viability (IC5) was previously identified, extrapolating a dose response curves obtained with six CPF nominal concentrations (0.49, 1.95, 7.81, 31.25, 125, and 500 μM) vs solvent control (0.1 % DMSO) after 14-day treatment by means of resazurin test (CellTiter-Blue® Reagent).
CPF stock solutions were prepared in DMSO and stored in glass at −20 °C until the beginning of each experiment. Freshly prepared treatment solutions were obtained after the dilution of stock solutions in a ratio of […] in serum-free culture medium, keeping DMSO concentration at 0.1 %. Aliquots of the stock and daily treatment solutions (considered as the starting solutions) were stored at −80 °C until HPLC analysis.
Cells (about 21,000 cells/cm^2), seeded on 6 well PDL- and reduced growth factor Matrigel coated plates, were treated during the differentiation process, starting from day 7 of differentiation up to day 21, with treatment/medium refreshed twice a week (Fig. 2). Exposure to CPF of cells or pre-coated wells (without cells) was initiated by adding 2 mL per well of the corresponding treatment solutions or the vehicle (control wells). Four biological replicates were carried out.
A first set of experiments was used to fine tune the experimental conditions, including time points and exposure conditions, taking into account possible metabolism, bioaccumulation and/or physical sequestration processes. All the fractions (i.e., medium, cells, plastic and matrix-bound fractions) were collected, at the first and last day of treatment, at different time points (i.e., 1, 3, 6, 24 h) selected on the basis of the intrinsic features of the compound and the cellular model. At each time point, the medium was transferred into amber glass vials and stored at −80 °C until HPLC analysis. Cells were washed twice with PBS (2 mL/well); to avoid dehydration of the cells, an aliquot of PBS was kept in each well. PBS was then removed, cells were scraped from the wells in 250 μL MeOH, additional 100 μL MeOH were added for washing and all the content was transferred into amber glass vials. The same procedure was applied also to the wells used for measuring matrix-bound material (without cells). Cells were then sonicated until they were fully homogenized (about 15 min). All fractions, including DMSO from control wells and MeOH used to measure possible plastic binding, were stored at −80 °C until HPLC analysis. Four biological replicates were carried out.
All samples from kinetic experiments were analysed using high-performance liquid chromatography (HPLC), as previously described, to quantify CPF and its metabolites. Prior to analysis, one volume of the collected medium samples was mixed with three volumes of MeOH. All the mixtures, including cell and matrix-bound samples, were vortexed for 30 s and then centrifuged (Eppendorf 5417R; 4 °C, 2500 rpm) for 10 min. Preliminary assays were conducted to evaluate CPF and its metabolite recovery after the solvent extraction procedure from each type of sample. […] Plastic-bound fraction was injected as such.
The HPLC system included a PerkinElmer Series 200 analytical pump, a Restek™ Pinnacle ODS Amine C18 column, a PerkinElmer LC 235 Diode Array Detector and the PerkinElmer Totalchrom™ 3.1.2 software for data acquisition and evaluation. For analysing CPF, CPFO and TCP, a gradient elution was applied at a flow rate of 1.0 mL/min, starting at 80:20 % methanol /buffer (Tris /HCl 50 mM EDTA 1 mM pH 7.4) and reaching after 4 min a percentage of 70:30 (v/v), respectively, maintained for 16 min. Then, the gradient returned to the initial concentration before the next sample was injected.

Molecules are shown by their SMILES.

Turning to `CCOP(=S)(OCC)Oc1nc(Cl)c(Cl)cc1Cl` [CPF, Chlorpyrifos], the “Intracellular levels of CPF” value (first day of treatment, 1 h until 24 h, 21 μM nominal) is 2.5–4.7 nmol/well. For the same compound, the “CPF in the medium as % of the initial CPF amount” value (first day of treatment, 24 h) was “around 41%”. For the same compound, the “CPF in the medium” value (first day of treatment, 24 h, 21 μM nominal) is 18.0 ± 6.9 nmol/well. Under “first day of treatment, first three time points (1, 3 and 6 h)”, the “Mass balance (% of the applied CPF amount)” value is “around 95%”. For the same compound, the “Actual concentration in the medium at the beginning of the experiment (treatment solution)” value (nominal concentration 21 μM (IC5)) worked out at 24.5 ± 5.6 µM. Moreover, the “Amount of CPF in the cell compartment, last day compared to first day of treatment” value (p < 0.01) was “doubled”. In addition, the Mass balance (repeated exposure, within the first 6 h) is 110 to 120%.

The values are drawn from PMC7772889, “Integrating biokinetics and in vitro studies to evaluate developmental neurotoxicity induced by chlorpyrifos in human iPSC-derived neural stem cells undergoing differentiation towards neuronal and glial cells” (Reproductive Toxicology (Elmsford, N.y.), 2020).
